Results as given in patent US20230348462A1, “IMIDAZO[4,5-C]QUINOLINE COMPOUNDS AND THEIR USE AS ATM KINASE INHIBITORS” (Deutsches Krebsforschungszentrum, priority 2020, published 2023).

Legend:
human ATM = human ATM (Homo sapiens (Human), UniProt Q13315); test: Enzymatic ATM assay (RBC FRET enzyme assay); type: biochemical; details: substrate p53, 5-point dilution starting at 10 μM
Method: The inhibitory activity on the isolated ATM kinase was determined by a commercial supplier (Reaction Biology Corp., PA, US) using an activity based FRET assay. Compounds were therefore first pre-incubated with human ATM before substrate (p53) and ATP were added to initiate the phosphorylation reaction. After a given time, the kinase reaction was stopped and the amount of phosphorylated substrate was quantified using standard FRET detection methods. […] Detailed assay conditions and parameters can be requested from the commercial supplier.

[1] = test system: Panc-1 human pancreatic ductal carcinoma cells; test: Panc1 cell assay (XTT cell viability with Etoposide); type: cell-based; details: 4 h pre-treatment, then 300 nM Etoposide, 46 h
Description: (§1) A selection of compounds was screened in a cellular assay system in two different cancer cell lines. Therefore, the cells were challenged with a generally non-cytotoxic concentration of Etoposid to induce DNA double strand breaks and the activation of the ATM pathway. The cells were further treated with different concentrations of the final compounds and viability of the cells was quantified using a standard XTT cell viability protocol. The principle of this assay lies in the fact that only alive and thus metabolically active cells are able to catalyze the reduction of XTT ((2,3-bis-(2-methoxy-4-nitro-5-sulfophenyl)-2H-tetrazolium-5-carboxanilide) by NADH from mitochondria, into formazan. The formazan product can be then detected using an absorbance-based microplate reader. The absorbance intensity measured in each well correlates to cell viability.
(§2) In brief, kras^G12D; mycOE; p53^−/− murine pancreatic cancer cells (KMP53) and Panc-1 human pancreatic ductal carcinoma cells were seeded in 96-well plates and left to attach overnight. The following day, cells were treated with serial dilutions of compound or DMSO in triplicates. The cells were first pre-treated for 4 hours with inhibitor and then 300 nM of Etoposide was added to each well. Cells were then grown under normal conditions (37° C., 95% air, 5% CO2) for 46 h. Following the incubation period, XTT solution was added to the cells containing 1 mg/ml XTT and 25 μM phenazine methosulfate (PMS) diluted in full culture medium. Cells were incubated in normal conditions for two more hours. For the determination of cell viability, absorbance at 450 nm was measured for each well. Absorbance values were then normalized to DMSO control and expressed as percentages of viability. Using software GraphPad Prism, the values were fitted in a nonlinear response curve and the IC50 values were calculated.

[2] = test system: kras^G12D; mycOE; p53^−/− murine pancreatic cancer cells (KMP53); test: KMP53 cell assay (XTT cell viability with Etoposide); type: cell-based; details: Mus musculus, 4 h pre-treatment, then 300 nM Etoposide, 46 h
Description: as §1, §2

Solubility in DMSO = type: physicochemical; details: organic solvent or mixture, free base
Method: In a screw-top reaction vial, 41 mg (25) (0.1 mmol) and 1 mg tBu3P Pd G3 (1.5 mol %) were suspended in 2.4 ml degassed dioxane under argon atmosphere. Subsequently were added 40 mg (27) (0.14 mmol) as solution in dioxane and 0.6 ml of an aqueous 0.5M K3PO4 solution (0.3 mmol) via syringe. The reaction vial was sealed and heated to 50° C. heating block temperature for about 2 hours. TLC indicated complete conversion at that point and the reaction was quenched by dilution with EtOAc and brine. The phases were separated and the aqueous phase was further extracted with EtOAc (3×15 ml) and subsequently with DCM (4×15 ml). The combined extracts were washed with brine, dried and evaporated. The residue was purified via flash chromatography (DCM/MeOH+2N NH3 2-10%) to obtain 36 mg (74%) of the title substance as white solid. […] Therefore, it was converted to the HCl salt by dissolution in DCM/MeOH, acidification with HCl in EtOH and subsequent concentration of the solution. […]

Chain of human ATM (Q13315 whole entry): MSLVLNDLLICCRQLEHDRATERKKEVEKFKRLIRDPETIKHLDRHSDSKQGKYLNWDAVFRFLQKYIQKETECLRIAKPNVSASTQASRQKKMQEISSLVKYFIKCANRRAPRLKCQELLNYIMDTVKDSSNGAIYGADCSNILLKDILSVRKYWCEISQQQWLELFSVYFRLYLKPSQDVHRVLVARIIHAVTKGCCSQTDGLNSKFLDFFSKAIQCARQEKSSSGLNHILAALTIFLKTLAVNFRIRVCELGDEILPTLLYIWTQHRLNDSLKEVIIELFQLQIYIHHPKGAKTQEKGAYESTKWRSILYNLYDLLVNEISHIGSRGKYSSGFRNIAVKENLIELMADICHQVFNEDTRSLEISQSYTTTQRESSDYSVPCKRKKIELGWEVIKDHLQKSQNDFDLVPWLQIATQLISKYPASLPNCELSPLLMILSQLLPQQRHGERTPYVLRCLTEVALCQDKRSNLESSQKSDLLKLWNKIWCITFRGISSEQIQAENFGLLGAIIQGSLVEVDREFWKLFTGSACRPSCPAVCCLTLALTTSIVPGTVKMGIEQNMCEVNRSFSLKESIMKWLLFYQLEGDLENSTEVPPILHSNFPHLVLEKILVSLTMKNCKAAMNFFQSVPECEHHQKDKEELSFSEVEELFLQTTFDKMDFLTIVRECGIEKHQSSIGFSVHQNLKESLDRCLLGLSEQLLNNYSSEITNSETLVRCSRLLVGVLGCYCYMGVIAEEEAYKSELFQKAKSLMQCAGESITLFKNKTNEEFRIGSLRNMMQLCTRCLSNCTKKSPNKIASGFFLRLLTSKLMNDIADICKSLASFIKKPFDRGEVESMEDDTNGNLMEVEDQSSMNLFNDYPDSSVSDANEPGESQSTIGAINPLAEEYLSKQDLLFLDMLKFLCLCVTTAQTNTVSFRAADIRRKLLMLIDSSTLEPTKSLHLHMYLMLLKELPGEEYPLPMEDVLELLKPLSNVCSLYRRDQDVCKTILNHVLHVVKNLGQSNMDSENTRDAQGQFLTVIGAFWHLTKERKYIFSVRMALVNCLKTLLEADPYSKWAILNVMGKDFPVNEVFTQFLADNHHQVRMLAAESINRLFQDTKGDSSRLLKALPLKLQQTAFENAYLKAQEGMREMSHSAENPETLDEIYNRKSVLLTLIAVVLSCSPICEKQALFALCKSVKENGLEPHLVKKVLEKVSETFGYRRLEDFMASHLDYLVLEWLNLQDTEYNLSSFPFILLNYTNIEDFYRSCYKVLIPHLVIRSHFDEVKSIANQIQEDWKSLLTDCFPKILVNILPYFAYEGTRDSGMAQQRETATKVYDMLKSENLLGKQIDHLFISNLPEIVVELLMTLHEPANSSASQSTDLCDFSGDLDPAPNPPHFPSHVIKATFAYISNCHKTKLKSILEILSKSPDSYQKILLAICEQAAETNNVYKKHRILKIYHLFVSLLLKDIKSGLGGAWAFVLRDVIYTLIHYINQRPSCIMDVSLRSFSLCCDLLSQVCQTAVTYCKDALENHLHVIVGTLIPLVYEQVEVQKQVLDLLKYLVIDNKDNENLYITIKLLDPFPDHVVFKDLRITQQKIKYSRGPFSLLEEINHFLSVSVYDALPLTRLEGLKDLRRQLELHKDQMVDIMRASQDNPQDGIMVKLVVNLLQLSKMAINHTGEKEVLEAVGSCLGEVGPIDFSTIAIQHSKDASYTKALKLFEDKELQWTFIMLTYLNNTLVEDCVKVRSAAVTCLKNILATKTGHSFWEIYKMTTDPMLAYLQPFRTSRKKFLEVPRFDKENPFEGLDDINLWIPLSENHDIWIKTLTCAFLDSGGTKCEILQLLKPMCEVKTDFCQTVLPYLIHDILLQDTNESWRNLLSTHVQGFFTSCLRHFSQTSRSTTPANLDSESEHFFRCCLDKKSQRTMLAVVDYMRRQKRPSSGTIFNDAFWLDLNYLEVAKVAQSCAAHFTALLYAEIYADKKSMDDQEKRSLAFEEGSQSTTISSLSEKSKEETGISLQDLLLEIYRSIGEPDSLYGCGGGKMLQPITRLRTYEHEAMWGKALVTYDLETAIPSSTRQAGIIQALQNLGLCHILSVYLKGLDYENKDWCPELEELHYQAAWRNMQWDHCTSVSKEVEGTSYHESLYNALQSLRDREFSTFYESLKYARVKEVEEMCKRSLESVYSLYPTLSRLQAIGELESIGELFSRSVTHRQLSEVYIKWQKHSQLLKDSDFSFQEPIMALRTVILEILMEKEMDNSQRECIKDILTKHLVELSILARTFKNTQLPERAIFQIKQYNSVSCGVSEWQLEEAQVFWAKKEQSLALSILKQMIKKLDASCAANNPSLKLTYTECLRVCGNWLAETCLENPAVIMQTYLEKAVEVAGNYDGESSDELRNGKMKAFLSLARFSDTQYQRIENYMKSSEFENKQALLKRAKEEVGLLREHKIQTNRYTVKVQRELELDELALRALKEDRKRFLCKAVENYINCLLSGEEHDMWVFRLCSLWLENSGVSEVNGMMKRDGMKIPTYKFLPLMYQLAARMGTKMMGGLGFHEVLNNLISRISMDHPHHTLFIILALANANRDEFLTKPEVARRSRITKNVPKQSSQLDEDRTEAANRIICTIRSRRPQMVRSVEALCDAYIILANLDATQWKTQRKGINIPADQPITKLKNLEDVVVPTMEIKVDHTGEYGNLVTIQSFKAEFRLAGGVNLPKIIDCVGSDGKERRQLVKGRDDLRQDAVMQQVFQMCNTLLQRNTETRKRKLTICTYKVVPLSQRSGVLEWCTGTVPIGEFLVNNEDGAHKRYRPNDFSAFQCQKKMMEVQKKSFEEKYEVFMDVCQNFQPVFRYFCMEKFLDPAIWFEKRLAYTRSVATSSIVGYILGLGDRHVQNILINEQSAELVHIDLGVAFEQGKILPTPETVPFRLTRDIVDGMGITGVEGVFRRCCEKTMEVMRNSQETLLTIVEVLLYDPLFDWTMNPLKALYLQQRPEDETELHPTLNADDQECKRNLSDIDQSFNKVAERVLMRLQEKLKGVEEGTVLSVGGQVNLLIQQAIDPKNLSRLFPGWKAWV

IC50 (human ATM)	IC50 [1]	IC50 [2]	solubility (Solubility in DMSO)	SMILES
< 1 nM	1 nM	4790 nM	–	COCCn1c(=O)n(C)c2cnc3ccc(-c4ccc(NC(=O)NCCN(C)C)cc4F)cc3c21 [Ex. 27, 1-(2-(Dimethylamino)ethyl)-3-(3-fluoro-4-(1-(2-methoxyethyl)-3-methyl-2-oxo-2,3-dihydro-1H-imidazo[4,5-c]quinolin-8-yl)phenyl)urea]
< 1 nM	–	2500 nM	< 10 mM	CN(C)CCNC(=O)Nc1ccc(-c2ccc3ncc4c(c3c2)n(C2CCOCC2)c(=O)n4C)cn1 [Ex. 7, 1-(2-(Dimethylamino)ethyl)-3-(5-(3-methyl-2-oxo-1-(tetrahydro-2H-pyran-4-yl)-2,3-dihydro-H-imidazo[4,5-c]quinolin-8-yl)pyridin-2-yl)urea]
< 1 nM	9 nM	9930 nM	–	COCCn1c(=O)n(C)c2cnc3ccc(-c4ccc(NC(=O)NC5CCN(C)C5)cc4)cc3c21 (centres unmarked) [Ex. 19, 1-(4-(1-(2-Methoxyethyl)-3-methyl-2-oxo-2,3-dihydro-1H-imidazo[4,5-c]quinolin-8-yl)phenyl)-3-(1-methylpyrrolidin-3-yl)urea]
< 1 nM	4 nM	–	–	COCCn1c(=O)n(C)c2cnc3ccc(-c4ccc(NC(=O)NC5CCCN(C)C5)cc4)cc3c21 (centres unmarked) [Ex. 17, 1-(4-(1-(2-Methoxyethyl)-3-methyl-2-oxo-2,3-dihydro-1H-imidazo[4,5-c]quinolin-8-yl)phenyl)-3-(1-methylpiperidin-3-yl)urea]
< 1 nM	1 nM	2000 nM	–	COCCn1c(=O)n(C)c2cnc3ccc(-c4ccc(NC(=O)NCCN(C)C)c(F)c4)cc3c21 [Ex. 28, 1-(2-(Dimethylamino)ethyl)-3-(2-fluoro-4-(1-(2-methoxyethyl)-3-methyl-2-oxo-2,3-dihydro-1H-imidazo[4,5-c]quinolin-8-yl)phenyl)urea]
